Measurements reported in patent US9163030B2 (priority 2012, dated 2015).
Like-named read-outs stand apart in the source and are kept apart here.

Tests used:
KOR [1] = biological target: T1, KOR (Homo sapiens, UniProt P41145); experiment: biochemical; assay type: binding
T1 construct: expressed in transfected cells; host or cells: CHO (hKOR-CHO)

DOR [2] = biological target: T2, DOR (Mus musculus, UniProt P32300); experiment: [35S]GTP-γ-S binding assay, NG108-15 cells; assay type: biochemical; details: for agonist activity DOR EC50: stimulation of [35S]GTP-γ-S binding, no stim = no stimulation; for functional activity profile at DOR: in words; for Emax: read-out: agonist activity DOR Emax
T2 construct: endogenous in cells; host or cells: NG108-15 neuroblastoma x glioma cells
T2 sequence (P32300 whole entry): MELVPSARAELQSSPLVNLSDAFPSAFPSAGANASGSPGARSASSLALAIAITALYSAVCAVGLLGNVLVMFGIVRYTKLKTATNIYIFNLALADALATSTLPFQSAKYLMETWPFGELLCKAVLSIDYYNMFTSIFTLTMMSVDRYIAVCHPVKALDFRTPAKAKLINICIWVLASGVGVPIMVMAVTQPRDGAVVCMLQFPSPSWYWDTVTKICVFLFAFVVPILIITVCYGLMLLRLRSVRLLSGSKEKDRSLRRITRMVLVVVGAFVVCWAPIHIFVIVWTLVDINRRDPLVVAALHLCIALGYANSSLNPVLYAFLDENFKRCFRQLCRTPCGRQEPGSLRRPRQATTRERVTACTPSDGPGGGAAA

MOR [3] = biological target: T3, MOR (Homo sapiens, UniProt P35372); experiment: Opioid binding assay, displacement of [3H]DAMGO, hMOR-CHO cell membranes; details: for selectivity ratio MOR/DOR: ratio of Ki values, CHO membranes
T3 construct: expressed in transfected cells; host or cells: CHO (hMOR-CHO)
T3 sequence (P35372 whole entry): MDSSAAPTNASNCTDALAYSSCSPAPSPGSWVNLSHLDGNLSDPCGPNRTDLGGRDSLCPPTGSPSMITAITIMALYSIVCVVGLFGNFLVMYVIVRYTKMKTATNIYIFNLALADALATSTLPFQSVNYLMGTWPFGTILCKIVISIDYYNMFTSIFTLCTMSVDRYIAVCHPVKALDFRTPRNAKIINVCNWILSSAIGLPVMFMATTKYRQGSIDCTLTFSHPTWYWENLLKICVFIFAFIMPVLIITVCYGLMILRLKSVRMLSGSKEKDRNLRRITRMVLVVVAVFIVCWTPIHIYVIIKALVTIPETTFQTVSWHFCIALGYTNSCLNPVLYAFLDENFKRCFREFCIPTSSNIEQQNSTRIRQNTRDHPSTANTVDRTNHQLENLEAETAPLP

DOR [4] = biological target: T4, DOR (Homo sapiens, UniProt P41143); experiment: Opioid binding assay, displacement of [3H]DADLE, hDOR-CHO cell membranes; details: for fold weaker in binding to DOR compared to 14-benzyloxy counterpart: 18a vs 17b, 18d vs 17f
T4 construct: expressed in transfected cells; host or cells: CHO (hDOR-CHO)
T4 sequence (P41143 whole entry): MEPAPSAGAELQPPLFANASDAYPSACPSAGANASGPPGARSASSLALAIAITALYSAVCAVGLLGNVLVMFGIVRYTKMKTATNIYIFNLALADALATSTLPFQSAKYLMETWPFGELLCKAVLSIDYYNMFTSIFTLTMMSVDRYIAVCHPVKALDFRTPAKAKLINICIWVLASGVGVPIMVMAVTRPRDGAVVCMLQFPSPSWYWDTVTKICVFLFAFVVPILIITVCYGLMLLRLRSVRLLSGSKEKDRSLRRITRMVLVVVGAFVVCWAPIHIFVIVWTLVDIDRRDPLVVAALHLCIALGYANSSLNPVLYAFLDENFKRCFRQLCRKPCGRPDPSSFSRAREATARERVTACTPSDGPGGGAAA

KOR [5] = biological target: T1, KOR; experiment: [35S]GTP-γ-S binding assay, hKOR-CHO cells; assay type: biochemical
MOR [6] = biological target: T3, MOR; experiment: [35S]GTP-γ-S binding assay, hMOR-CHO cells; assay type: biochemical; details: for agonist activity MOR EC50: stimulation of [35S]GTP-γ-S binding, no stim = no stimulation; for Emax / agonist activity MOR Emax: normalized to stimulation by DAMGO; for Emax: read-out: agonist activity MOR Emax; for functional activity profile at MOR: in words
mice = experiment: 55° C. warm-water tail-withdrawal test; assay type: in vivo, mouse; details: for Antinociceptive A50 Values: calculated at time of peak effect; for antinociceptive effect: in words; for effect of naloxone pretreatment on antinociceptive effect: naloxone 10 mg/kg ip, -10 min, icv test compound
[7] = ratio of Ki values, CHO membranes
[8] = normalized to stimulation by standard agonist
[9] = stimulation of [35S]GTP-γ-S binding, no stim = no stimulation
[10] = shift in EC50 of standard agonist

T1 sequence (P41145 whole entry): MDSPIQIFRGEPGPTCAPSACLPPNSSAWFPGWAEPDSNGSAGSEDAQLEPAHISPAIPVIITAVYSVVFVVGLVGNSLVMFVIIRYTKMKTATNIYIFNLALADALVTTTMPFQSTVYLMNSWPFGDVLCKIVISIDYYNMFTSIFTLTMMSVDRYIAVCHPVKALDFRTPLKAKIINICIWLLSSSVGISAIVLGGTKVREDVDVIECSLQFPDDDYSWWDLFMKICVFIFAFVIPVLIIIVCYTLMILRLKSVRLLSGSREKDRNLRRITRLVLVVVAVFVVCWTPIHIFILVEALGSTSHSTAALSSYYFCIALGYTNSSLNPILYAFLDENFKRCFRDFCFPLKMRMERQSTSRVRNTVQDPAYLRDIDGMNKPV

| SMILES | selectivity ratio KOR/DOR (KOR [1]; [7]) | Ki (KOR [1]; read-out: Ki ± SEM KOR) [nM] | agonist activity DOR EC50 (DOR [2]) | Ki (MOR [3]) [nM] | selectivity ratio MOR/DOR (MOR [3]) | melting point | Ki (DOR [4]) [nM] | EC50 (KOR [5]) [nM] | Emax (KOR [5]; [8]) [%] | agonist activity MOR EC50 (MOR [6]) | functional activity profile at DOR (DOR [2]) | EC50 (MOR [6]) [nM] | Emax (MOR [6]) [%] | Ki (KOR [1]) [nM] | selectivity ratio KOR/DOR (KOR [1]) | further results |
| --- | --- | --- | --- | --- | --- | --- | --- | --- | --- | --- | --- | --- | --- | --- | --- | --- |
| O=C(Cc1ccccc1)OC12Cc3cc(-c4ccc(Cl)cc4)cnc3C3Oc4c(O)ccc5c4C31CCN(CC1CC1)C2C5 (stereo not drawn) [Compound 18b, 5′-(4-Chlorophenyl)-17-(cyclopropylmethyl)-6,7-didehydro-4,5α-epoxy-3-hydroxy-14-(phenylacetoxy)pyrido[2′,3′:6,7]morphinan] | 2.3 | 3.1 ± 0.19 | no stim | 1.04 ± 0.25 | 0.78 | 118 to 120 °C | 1.33 ± 0.1 | 26 ± 9 | 34 ± 2 | no stim |  |  |  |  |  |  |
| CN1CCC23c4c5ccc(O)c4OC2c2ncc(-c4ccc(Cl)cc4)cc2CC3(OCc2ccccc2)C1C5 (stereo not drawn) [Compound 17f, 14-Benzyloxy-5′-(4-chlorophenyl)-6,7-didehydro-4,5α-epoxy-3-hydroxy-17-methylpyrido[2′,3′:6,7]morphinan] | 28 | 49 ± 6 |  | 4.69 ± 0.17 | 2.6 | 228 to 232 °C | 1.78 ± 0.15 | 215 ± 54 | 32 ± 2 |  | weak to potent partial agonist activity at DOR | 301 | 119 ± 3 |  |  | Emax (DOR [2]): 52 ± 1% |
| O=C(OC12Cc3cc(-c4ccc(Cl)cc4)cnc3C3Oc4c(O)ccc5c4C31CCN(CC1CC1)C2C5)c1ccccc1 (stereo not drawn) [Compound 18a, 14-Benzoyloxy-5′-(4-chlorophenyl)-17-(cyclopropylmethyl)-6,7-didehydro-4,5α-epoxy-3-hydroxypyrido[2′,3′: 6,7]morphinan] |  |  | no stim | 192 ± 21 | 2.2 | 158 to 162 °C | 87 ± 8 |  |  | no stim |  |  |  | 117 ± 6 | 1.3 | fold weaker in binding to DOR compared to 14-benzyloxy counterpart (DOR [4]): 45 fold; agonist activity KOR EC50 (KOR [5]; [9]): no stim |
| CN1CCC23c4c5ccc(O)c4OC2c2ncc(-c4ccc(Cl)cc4)cc2CC3(OC(=O)c2ccccc2)C1C5 (stereo not drawn) [Compound 18d, 14-Benzoyloxy-5′-(4-chlorophenyl)-6,7-didehydro-4,5α-epoxy-3-hydroxy-17-methylpyrido[2′,3′:6,7]morphinan] | 6.6 | 112 ± 4 | no stim | 84 ± 7 | 4.9 | 280 to 284 °C | 17 ± 1 |  |  |  |  | 4620 ± 1440 | 55 ± 8 |  |  | fold weaker in binding to DOR compared to 14-benzyloxy counterpart (DOR [4]): 10 fold; agonist activity KOR EC50 (KOR [5]; [9]): no stim; functional activity profile at MOR (MOR [6]): weak MOR agonist potency and partial efficacy |
| Oc1ccc2c3c1OC1c4ncc(-c5ccc(Cl)cc5)cc4CC4(OCc5ccccc5)C(C2)N(CC2CC2)CCC314 (stereo not drawn) [Compound 17b, 14-(Benzyloxy)-5′-(4-chlorophenyl)-17-(cyclopropylmethyl)-6,7-didehydro-4,5α-epoxy-3-hydroxypyrido[2′,3′:6,7]morphinan] |  |  | no stim | 8.42 ± 0.29 | 4.4 | 130 to 132 °C | 1.91 ± 0.08 | 27 ± 9 | 15 ± 1 | no stim |  |  |  | 5.33 ± 0.27 | 2.8 |  |
| CN1CCC23c4c5ccc(O)c4OC2c2ncc(-c4ccc(Cl)cc4)cc2CC3(OC(=O)Cc2ccccc2)C1C5 (stereo not drawn) [Compound 18e, 5′-(4-Chlorophenyl)-6,7-didehydro-4,5α-epoxy-3-hydroxy-17-methyl-14-(phenylacetoxy)pyrido[2′,3′:6,7]morphinan] | 18 | 17 ± 1 |  | 1.43 ± 0.08 | 1.5 | 194 to 196 °C | 0.97 ± 0.04 | 109 ± 24 | 36 ± 2 |  | weak to potent partial agonist activity at DOR | 87 |  |  |  | Emax (DOR [2]): 27 ± 3%; agonist activity MOR Emax (MOR [6]): 122 ± 3% |
| O=C(CCc1ccccc1)O[C@@]12Cc3cc(-c4ccc(Cl)cc4)cnc3[C@@H]3Oc4c(O)ccc5c4[C@@]31CCN(CC1CC1)[C@@H]2C5 [Compound 18c, 5′-(4-Chlorophenyl)-17-(cyclopropylmethyl)-6,7-didehydro-4,5α-epoxy-3-hydroxy-14-(3-phenylpropionyloxy)pyrido[2′,3′:6,7]morphinan] | 2.9 | 12 ± 13 | no stim |  | 0.62 |  |  |  |  | no stim |  |  |  |  |  | antagonist activity DOR Ke (DOR [2]; [10]): 1.86 ± 0.21 nM; Ki (MOR [3]; read-out: Ki ± SEM MOR): 2.58 ± 0.12 nM; Ki (DOR [4]; read-out: Ki ± SEM DOR): 4.13 ± 0.29 nM; agonist activity KOR Emax (KOR [5]; [8]): 25 ± 1%; antagonist activity KOR Ke (KOR [5]; [10]): 14 ± 2 nM; EC50 (KOR [5]; stimulation of [35S]GTP-γ-S binding, no stim = no stimulation, read-out: agonist activity KOR EC50): 13 ± 4 nM; antagonist activity MOR Ke (MOR [6]; [10]): 13 ± 1.7 nM |
| COC12Cc3cc(-c4ccc(Cl)cc4)cnc3C3Oc4c(O)ccc5c4C31CCN(CC1CC1)C2C5 (stereo not drawn) [Compound 17a, 5′-(4-Chlorophenyl)-17-(cyclopropylmethyl)-6,7-didehydro-4,5α-epoxy-3-hydroxy-14-methoxypyrido[2′,3′:6,7]morphinan] |  | 5.37 ± 0.48 | no stim^b | 41.9 ± 2.8 | 22 | 170 to 173 °C | 1.95 ± 0.14 |  |  | no stim |  |  |  |  | 2.8 |  |
| COC12Cc3cc(-c4ccc(Cl)cc4)cnc3C3Oc4c(O)ccc5c4C31CCN(C)C2C5 (stereo not drawn) [Compound 17e, 5′-(4-Chlorophenyl)-6,7-didehydro-4,5α-epoxy-3-hydroxy-14-methoxy-17-methylpyrido[2′,3′:6,7]morphinan] | 17 | 28 ± 1.59 | no stim | 7.89 ± 0.33 | 4.8 | 296 to 299 °C (dec.) | 1.63 ± 0.08 | 633 ± 108 | 36 ± 2 |  | antagonist activity at DOR | 379 | 118 ± 4 |  |  | analgesic potency, fold weaker than other tested ligands (mice; icv): 6 fold; Antinociceptive A50 Values (mice; icv): 1.44 nmol; antinociceptive effect (mice; icv): full antinociceptive effects; effect of naloxone pretreatment on antinociceptive effect (mice): blocked by naloxone pretreatment |
| CN1CCC23c4c5ccc(O)c4OC2c2ncc(-c4ccc(Cl)cc4)cc2CC3(OCC=Cc2ccccc2)C1C5 (stereo not drawn) [Compound 17g, 5′-(4-Chlorophenyl)-14-cinnamyloxy-6,7-didehydro-4,5α-epoxy-3-hydroxy-17-methylpyrido[2′,3′:6,7]morphinan] | 1.4 | 1.55 ± 0.09 |  | 0.41 ± 0.04 | 0.36 |  | 1.14 ± 0.11 |  |  |  | weak to potent partial agonist activity at DOR | 4.27 | 130 ± 3 |  |  | Emax (DOR [2]): 84%; Antinociceptive A50 Values (mice; icv): 0.23 nmol; antinociceptive effect (mice; icv): full antinociceptive effects; effect of naloxone pretreatment on antinociceptive effect (mice): blocked by naloxone pretreatment |
| CN1CCC23c4c5ccc(O)c4OC2c2ncc(-c4ccc(Cl)cc4)cc2CC3(OC(=O)CCc2ccccc2)C1C5 (stereo not drawn) [Compound 18f, 5′-(4-Chlorophenyl)-6,7-didehydro-4,5α-epoxy-3-hydroxy-17-methyl-14-(3-phenylpropionyloxy)pyrido[2′,3′:6,7]morphinan] |  |  |  | 0.94 ± 0.05 | 0.98 | 242 to 244 °C | 0.96 ± 0.05 | 136 ± 60 | 16 ± 2 |  | weak to potent partial agonist activity at DOR | 48 | > 100 | 4.41 ± 0.23 | 4.6 | Emax (DOR [2]): 59 ± 2%; agonist activity MOR Emax (MOR [6]): 105 ± 2% |
| Oc1ccc2c3c1OC1c4ncc(-c5ccc(Cl)cc5)cc4C=C4C(C2)N(CC2CC2)CCC431 (stereo not drawn) [Compound 23, 5′-(4-Chlorophenyl)-17-(cyclopropylmethyl)-3-hydroxy-6,7,8,14-tetradehydro-4,5α-epoxypyrido[2′,3′:6,7]morphinan] |  |  | no stim | 13 ± 0.4 | 4.8 | 164 to 166 °C | 2.71 ± 0.11 |  |  | no stim |  |  |  | 5.97 ± 0.19 | 2.2 | agonist activity KOR EC50 (KOR [5]; [9]): no stim; functional activity profile at MOR (MOR [6]): antagonists at MOR |
| Oc1ccc2c3c1OC1c4ncc(-c5ccc(Cl)cc5)cc4CC4(OCC=Cc5ccccc5)C(C2)N(CC2CC2)CCC314 (stereo not drawn) [Compound 17c, 5′-(4-Chlorophenyl)-14-cinnamyloxy-17-(cyclopropylmethyl)-6,7-didehydro-4,5α-epoxy-3-hydroxypyrido[2′,3′:6,7]morphinan] |  |  | no stim | 3.03 ± 0.38 | 0.81 | 138 to 140 °C | 3.74 ± 0.32 |  |  | no stim |  |  |  | 3.31 ± 0.3 | 0.89 |  |
| CN1CC[C@]23c4c5ccc(O)c4O[C@H]2[C@@H](O)C=C[C@H]3[C@H]1C5 [morphine, reference compound] |  |  |  |  |  |  |  |  |  |  |  |  |  |  |  | Antinociceptive A50 Values (mice; icv): 0.43 nmol |
